Measured values as given in patent US8802720B2, “Acylamino-substituted fused cyclopentanecarboxylic acid derivatives and their use as pharmaceuticals” (SANOFI, priority 2008, dated 2014).

Target: human Edg-2 receptor (LPA1 receptor) (Homo sapiens, UniProt Q92633)
Assay: Edg-2 receptor inhibition by FLIPR calcium fluorescence measurement (LPA-mediated calcium liberation)
Format: cell-based
Settings: CHO cells stably overexpressing human Edg-2 receptor; LPA 18:1 100 nM; fluo-4 fluorescence; triplicate; read-out: Inhibitory concentrations IC50 for inhibition of the Edg-2 receptor
In short: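 CHO cells stably overexpressing human Edg-2 were fluo-4 loaded and pre-incubated ~5 min with compound (≤0.3% DMSO) in HBSS/HEPES/probenecid, pH 7.5. Then LPA 18:1 at 100 nM final was added. Peak calcium fluorescence over ~3 min, baseline-corrected versus DMSO, gave % inhibition in triplicate and IC50.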

human Edg-2 receptor (LPA1 receptor), sequence (Q92633 whole entry): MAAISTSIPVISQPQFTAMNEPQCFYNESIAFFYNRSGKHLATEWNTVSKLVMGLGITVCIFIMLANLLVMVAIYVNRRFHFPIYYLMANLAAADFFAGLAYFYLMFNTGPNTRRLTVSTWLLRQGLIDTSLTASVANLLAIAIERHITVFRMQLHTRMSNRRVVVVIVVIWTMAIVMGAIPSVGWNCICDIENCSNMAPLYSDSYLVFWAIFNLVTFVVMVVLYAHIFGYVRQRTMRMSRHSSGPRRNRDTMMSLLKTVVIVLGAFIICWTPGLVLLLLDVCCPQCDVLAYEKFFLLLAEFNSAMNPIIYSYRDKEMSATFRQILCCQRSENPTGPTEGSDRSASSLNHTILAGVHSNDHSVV

Row | IC50 [µM] | Compound
1 | < 0.1 | COc1ccc(C(=O)NC2(C(=O)O)Cc3ccccc3C2)cc1-c1cc(F)c(F)c(F)c1 [Example 306]
2 | < 0.1 | COc1c(F)cc(C(=O)NC2(C(=O)O)Cc3ccccc3C2)cc1-c1ccc(Cl)cc1 [Example 358]
3 | < 0.1 | COc1ccc(C(=O)NC2(C(=O)O)Cc3ccccc3C2)cc1OCCc1cccc(Br)c1 [Example 143]
4 | 1 to 30 | COc1ccc(C(=O)NC2(C(=O)O)Cc3ccccc3C2)cc1OCCc1cccc([S+](C)[O-])c1 (stereo not drawn) [Example 17, 2-{3-[2-(3-Methanesulfinyl-phenyl)-ethoxy]-4-methoxy-benzoylamino}-indane-2-carboxylic acid]
5 | 1 to 30 | COc1cc(Br)c(C(=O)NC2(C(=O)O)Cc3ccccc3C2)cc1OCCc1cccc(Cl)c1 [Example 104, 2-{2-Bromo-5-[2-(3-chloro-phenyl)-ethoxy]-4-methoxy-benzoylamino}-indane-2-carboxylic acid]
6 | 1 to 30 | COc1ccc(C(=O)NC2(C(=O)O)Cc3ccccc3C2)cc1OCCSc1nccn1C [Example 75]
7 | 1 to 30 | CCOC(=O)N1CCN(CCOc2cc(C(=O)NC3(C(=O)O)Cc4ccccc4C3)ccc2OC)CC1 [Example 67]
8 | 1 to 30 | COc1ccc(C(=O)NC2(C(=O)O)Cc3ccccc3C2)cc1OCCC1CC1 [Example 86]
9 | 0.1 to 1 | COc1cc(Cl)c(C(=O)NC2(C(=O)O)Cc3ccccc3C2)cc1OCCc1cccc(Cl)c1 [Example 105, 2-{2-Chloro-5-[2-(3-chloro-phenyl)-ethoxy]-4-methoxy-benzoylamino}-indane-2-carboxylic acid]
10 | < 0.1 | COc1ncc(C(=O)NC2(C(=O)O)Cc3ccccc3C2)cc1OCCc1cccc(C)c1 [Example 208, 2-{[6-Methoxy-5-(2-m-tolyl-ethoxy)-pyridine-3-carbonyl]-amino}-indane-2-carboxylic acid]
11 | 1 to 30 | COc1cc(C(=O)NC2(C(=O)O)Cc3ccccc3C2)ccc1OCCc1cccc(Cl)c1 [Example 161, 2-{4-[2-(3-Chloro-phenyl)-ethoxy]-3-methoxy-benzoylamino}-indane-2-carboxylic acid]
12 | 0.1 to 1 | Cc1cccc(CCOc2cc(C(=O)NC3(C(=O)O)Cc4ccccc4C3)ccc2OCCC(F)(F)F)c1 [Example 260]
13 | < 0.1 | CCOc1ccc(C(=O)NC2(C(=O)O)Cc3ccccc3C2)cc1OCCc1cccc(C)c1 [Example 12, 2-[4-Ethoxy-3-(2-m-tolyl-ethoxy)-benzoylamino]-indane-2-carboxylic acid]
14 | 1 to 30 | COc1ccc(C(=O)NC2(C(=O)O)Cc3ccccc3C2)cc1OCCc1cccc2ccccc12 [Example 44]
15 | 1 to 30 | COc1ccc(C(=O)NC2(C(=O)O)Cc3ccccc3C2)cc1OCCc1cc(-c2ccc(Cl)cc2)no1 [Example 54]
16 | < 0.1 | COc1ccc(C(=O)NC2(C(=O)O)Cc3cscc3C2)cc1OCCc1cccc(C)c1 [Example 98, 5-[4-Methoxy-3-(2-m-tolyl-ethoxy)-benzoylamino]-5,6-dihydro-4H-cyclopenta[c]thiophene-5-carboxylic acid]
17 | < 0.1 | O=C(NC1(C(=O)O)Cc2ccccc2C1)c1ccc(C(F)(F)F)c(OCCc2cc(Cl)ccc2F)c1 [Example 189]
18 | 0.1 to 1 | COc1ccc(C(=O)NC2(C(=O)O)Cc3ccccc3C2)cc1NCC(C)c1ccccc1 (stereo not drawn) [Example 124]
